# Results: US4705799A, “Aminomethyl oxooxazolidinyl benzenes useful as antibacterial agents” (E. I. Du Pont de Nemours and Company, priority 1985, dated 1987)
# Assays:
# [1] = system: Staphylococcus epidermidis; assay: In vitro broth dilution minimal inhibitory concentration (standard microdilution method); assay type: cell-based; details: 24 h, Mueller-Hinton broth, 24-hour, read-out: Microdilution Broth MIC
# [2] = system: Escherichia coli; assay: as above; assay type: cell-based
# [3] = system: Staphylococcus aureus; assay: In vivo efficacy of orally administered compounds in mouse intraperitoneal infections
# [4] = system: Staphylococcus aureus; assay: In vivo efficacy of compounds administered subcutaneously in mouse intraperitoneal infections; details: sc, 168 h; mouse i.p. Staphylococcus aureus infection; subcutaneous; dosed at infection and 4 h post-infection; 7 days; read-out: ED50 (50 percent effective dose)
# [5] = system: Staphylococcus aureus; assay: In vitro test, same procedures as microdilution MIC; assay type: cell-based; details: same procedures as Table 9
# From the text: It is believed that the compound of Example 123 would provide control at higher concentrations or under different conditions.
compound,measurement,setting,value
"CCCCCCN(CC1CN(c2ccc(S(C)(=O)=O)cc2)C(=O)O1)C(=O)OC (racemic) [Example 123, (dl)-N-hexyl-N-[3-[4-(methylsulfonyl)phenyl]-2-oxooxazolidin-5-ylmethyl]carbamic acid, methyl ester]",MIC,[1],> 200 µg/mL
same,MIC,"[2]; Escherichia coli, Mueller-Hinton broth, 24-hour, read-out: Microdilution Broth MIC",> 200 µg/mL
same,control of Escherichia coli in vitro,"[2]; same procedures as Table 9, result in words",no control
same,ED50,"[3]; Staphylococcus aureus, po, 168 h, mouse i.p. Staphylococcus aureus infection, oral, dosed at infection and 4 h post-infection, 7 days, read-out: ED50 (50 percent effective dose)",27.6 mg/kg
same,antibacterial effect in vivo,"[3]; in vivo, see Tables 10 and 11",found to exhibit an antibacterial effect in vivo
same,ED50,[4],46.6 mg/kg
same,control of Staphylococcus aureus in vitro,[5],no control
